Assay results: patent US7138231B2 (priority 2000, dated 2006)
“Also recorded” adds a separate entry of the source.

Columns and labels:
[1] = tested on: HIV-1 patient-derived protease and reverse transcriptase segments (N88S in PR) in resistance test vectors; assay: Phenotypic drug susceptibility test with resistance test vectors from patient samples; type: cell-based; conditions: for Fold Change vs. reference: N88S
[2] = tested on: HIV-1 patient viruses with protease L90M; assay: Phenotypic susceptibility profiles of 58 patient virus samples with L90M, no other primary mutations; type: cell-based; conditions: for % FC > 2.5: IDV; for % w with IDV FC > 2.5: L90M
[3] = tested on: HIV-1 patient viruses with protease L90M; assay: Phenotypic susceptibility profiles of 333 patient virus samples with L90M (not 30 or 50); type: cell-based
[4] = tested on: HIV-1 variants with protease substitutions; conditions: cited from earlier work
[5] = tested on: HIV-1 protease site-directed mutants (N88S, L63P, V77I, M46L) in resistance test vector; assay: Phenotypic susceptibility assay of resistance test vectors with site-directed mutations in PR
From the text: The resistance test vectors containing a functional luciferase gene cassette were constructed and host cells were transfected with the resistance test vector DNA. […] The resistance test vector viral particles produced by transfecting the resistance test vector DNA into host cells, either in the presence or absence of protease inhibitors, were used to infect target host cells grown either in the absence of NRTI or NNRTI or in the presence of increasing concentrations of the drug. Luciferase activity in infected target host cells in the presence of drug was compared to the luciferase activity in infected target host cells in the absence of drug. […] The IC50 values were determined by plotting percent drug inhibition vs. log10 drug concentration.
Host cells were seeded in 10-cm-diameter dishes and were transfected one day after plating with resistance test vector plasmid DNA and the envelope expression vector. Transfections were performed using a calcium-phosphate co-precipitation procedure. The cell culture media containing the DNA precipitate was replaced with fresh medium, from one to 24 hours, after transfection. Cell culture media containing resistance test vector viral particles was harvested one to four days after transfection and was passed through a 0.45-mm filter before being stored at −80° C. HIV capsid protein (p24) levels in the harvested cell culture media were determined by an EIA method as described by the manufacturer (SIAC; Frederick, Md.). Before infection, target cells (293 and 293/T) were plated in cell culture media. Control infections were performed using cell culture media from mock transfections (no DNA) or transfections containing the resistance test vector plasmid DNA without the envelope expression plasmid. One to three or more days after infection the media was removed and cell lysis buffer (Promega) was added to each well. Cell lysates were assayed for luciferase activity. The inhibitory effect of the drug was determined using the following equation: % luciferase inhibition=[1−(RLUluc[drug]RLUluc)]×100 where RLUluc [drug] is the relative light unit of luciferase activity in infected cells in the presence of drug and RLUluc is the Relative Light Unit of luciferase activity in infected cells in the absence of drug. IC50 values were obtained from the sigmoidal curves that were generated from the data by plotting the percent inhibition of luciferase activity vs. the log10 drug concentration.
Mutations are introduced into the resistance test vector through any of the widely known methods for site-directed mutagenesis. […] A resistance test vector containing the specific mutation or group of mutations are then tested using the phenotypic susceptibility assay described above and the susceptibility profile is compared to that of a genetically defined wild-type (drug susceptible) resistance test vector which lacks the specific mutations.
Resistance test vectors were constructed containing the N88S mutation alone and in combination with other substitutions in PR (L63P, V77I and M46L) known to modulate the HIV susceptibility to PRIs. Mutations were introduced into the resistance test vector using the mega-primer PCR method for site-directed mutagenesis.

With CC(C)(C)NC(=O)[C@@H]1CN(Cc2cccnc2)CCN1C[C@@H](O)C[C@@H](Cc1ccccc1)C(=O)N[C@H]1c2ccccc2C[C@H]1O [indinavir] the “change in susceptibility” value ([1]; patient sample RTV-360) was “decrease”, the “change in susceptibility” value ([1]; patient sample RTV-627) was “decrease” and the “change in susceptibility” value ([1]; patient sample RTV-0732) was “decrease; also recorded: decreased susceptibility”. For the same compound, the “change in susceptibility” value ([1]; patient sample RTV-0910) was “decrease”, the “change in susceptibility” value ([1]; patient sample RTV-1208) was “decrease” and the “change in susceptibility” value ([1]; patient sample RTV-3542) was “decrease”. The “change in susceptibility” value ([1]; patient sample RTV-3654) was “decrease”, the “% FC > 2.5” value ([2]; L90M + mutation at position 46) was 88% and the “% FC > 2.5” value ([2]; L90M + mutation at position 71) was 89%. The “% FC > 2.5” value ([2]; L90M + mutation at position 71, listed as IDV) was 89%, the “% FC > 2.5” value ([2]; L90M + mutation at position 73) was 89% and the “% FC > 2.5” value ([2]; L90M + mutation at position 73, listed as IDV) was 89%. For the same compound, the “% FC > 2.5” value ([2]; listed as 90: all viruses with L90M) was 69%, the “% w with IDV FC > 2.5” value ([2]; number of secondary mutations 0) was 69% and the “% w with IDV FC > 2.5” value ([2]; number of secondary mutations 1) was 70%. For the same compound, the “% w with IDV FC > 2.5” value ([2]; number of secondary mutations 2) was 70%, the “% w with IDV FC > 2.5” value ([2]; number of secondary mutations 3) was 80% and the “% w with IDV FC > 2.5” value ([2]; number of secondary mutations 4) was 87%. For the same compound, the “% w with IDV FC > 2.5” value ([2]; number of secondary mutations 5) was 100%, the “% w with IDV FC > 2.5” value ([2]; number of secondary mutations 6) was 100% and the “wt % > 2.5” value ([3]; Indinavir FC>2.5, L90M, position 10 wild type) was 66.7%. The “wt % > 2.5” value ([3]; Indinavir FC>2.5, L90M, position 13 wild type) was 87.1%, the “wt % > 2.5” value ([3]; Indinavir FC>2.5, L90M, position 20 wild type) was 81.2% and the “wt % > 2.5” value ([3]; Indinavir FC>2.5, L90M, position 46 wild type) was 76.3%. For the same compound, the “wt % > 2.5” value ([3]; Indinavir FC>2.5, L90M, position 53 wild type) was 83.2%, the “wt % > 2.5” value ([3]; Indinavir FC>2.5, L90M, position 54 wild type) was 76.0% and the “wt % > 2.5” value ([3]; Indinavir FC>2.5, L90M, position 63 wild type) was 50.0%. For the same compound, the “wt % > 2.5” value ([3]; Indinavir FC>2.5, L90M, position 71 wild type) was 69.0%, the “wt % > 2.5” value ([3]; Indinavir FC>2.5, L90M, position 73 wild type) was 80.6% and the “wt % > 2.5” value ([3]; Indinavir FC>2.5, L90M, position 74 wild type) was 87.0%. The “wt % > 2.5” value ([3]; Indinavir FC>2.5, L90M, position 82 wild type) was 78.3%, the “wt % > 2.5” value ([3]; Indinavir FC>2.5, L90M, position 84 wild type) was 79.0% and the “wt % > 2.5” value ([3]; Indinavir FC>2.5, L90M, position 95 wild type) was 83.5%. The “mt % > 2.5” value ([3]; Indinavir FC>2.5, listed as 90: all samples with L90M) was 84.7%, the “wt % > 10” value ([3]; Indinavir FC>10, L90M, position 10 wild type) was 23.1% and the “wt % > 10” value ([3]; Indinavir FC>10, L90M, position 20 wild type) was 47.2%. The “wt % > 10” value ([3]; Indinavir FC>10, L90M, position 36 wild type) was 48.9%, the “wt % > 10” value ([3]; Indinavir FC>10, L90M, position 46 wild type) was 44.4% and the “wt % > 10” value ([3]; Indinavir FC>10, L90M, position 54 wild type) was 36.3%. For the same compound, the “wt % > 10” value ([3]; Indinavir FC>10, L90M, position 55 wild type) was 51.8%, the “wt % > 10” value ([3]; Indinavir FC>10, L90M, position 62 wild type) was 45.3% and the “wt % > 10” value ([3]; Indinavir FC>10, L90M, position 71 wild type) was 37.0%. The “wt % > 10” value ([3]; Indinavir FC>10, L90M, position 72 wild type) was 50.0%, the “wt % > 10” value ([3]; Indinavir FC>10, L90M, position 74 wild type) was 57.3% and the “wt % > 10” value ([3]; Indinavir FC>10, L90M, position 82 wild type) was 39.9%. The “wt % > 10” value ([3]; Indinavir FC>10, L90M, position 84 wild type) was 46.3%, the “wt % > 10” value ([3]; Indinavir FC>10, L90M, position 85 wild type) was 52.3% and the “wt % > 10” value ([3]; Indinavir FC>10, L90M, position 95 wild type) was 51.6%. The “mt % > 10” value ([3]; Indinavir FC>10, listed as 90: all samples with L90M) was 53.8%, the loss of susceptibility ([4]; mutant HIV-1 clones with mutations at residues 46, 63, and 82) was “fourfold” and the “loss of susceptibility compared with the wild type” value ([4]; selection in MT-4 cells, substitutions at residues 32, 46, 71, and 82) was 6.1 fold. The “change in susceptibility compared to wild type control RTV” value (“change … to wild type control RTV” for short) ([5]; L63P-N88S-RTV) was “decreased susceptibility”, the “change … to wild type control RTV” value ([5]; L63P-V77I-N88S-RTV) was “decrease in susceptibility; also recorded: resistance” and the “change … to wild type control RTV” value ([5]; M46L-L63P-N88S-RTV) was “slight decrease in susceptibility”. The “change … to wild type control RTV” value ([5]; M46L-L63P-V77I-N88S-RTV) was “decrease in susceptibility”.

For Cc1c(O)cccc1C(=O)N[C@@H](CSc1ccccc1)[C@H](O)CN1C[C@H]2CCCC[C@H]2C[C@H]1C(=O)NC(C)(C)C [nelfinavir], the “change in susceptibility” value ([1]; patient sample RTV-360) was “decrease”, the “change in susceptibility” value ([1]; patient sample RTV-627) was “decrease” and the “change in susceptibility” value ([1]; patient sample RTV-0732) was “decrease; also recorded: decreased susceptibility”. The “change in susceptibility” value ([1]; patient sample RTV-0910) was “decrease”, the “change in susceptibility” value ([1]; patient sample RTV-1208) was “decrease” and the “change in susceptibility” value ([1]; patient sample RTV-3542) was “decrease”. The “change in susceptibility” value ([1]; patient sample RTV-3654) was “decrease”, the “increase in 90% effective concentration” value ([4]; I84V and D30N single mutants and M46I/I84V double mutant of HIV-1 NL4-3) was “fivefold” and the “change in susceptibility” value ([4]; M46I, L63P, or A71V alone) was “no change in susceptibility”. The reduced susceptibility ([4]; variant P22, 22 serial passages of HIV-1 NL4-3) was “sevenfold”, the decreased susceptibility ([4]; variant P28, additional six passages) was 30 fold and the “change … to wild type control RTV” value ([5]; L63P-N88S-RTV) was “decreased susceptibility”. For the same compound, the “change … to wild type control RTV” value ([5]; L63P-V77I-N88S-RTV) was “decrease in susceptibility; also recorded: resistance”, the “change … to wild type control RTV” value ([5]; L63P-V77I-RTV) was “slight decrease in susceptibility” and the “change … to wild type control RTV” value ([5]; M46L-L63P-N88S-RTV) was “decrease in susceptibility”. For the same compound, the “change … to wild type control RTV” value ([5]; M46L-L63P-V77I-N88S-RTV) was “decrease in susceptibility” and the “change … to wild type control RTV” value ([5]; N88S-RTV) was “slightly less susceptible”.

For CC(C)c1nc(CN(C)C(=O)N[C@H](C(=O)N[C@@H](Cc2ccccc2)C[C@H](O)[C@H](Cc2ccccc2)NC(=O)OCc2cncs2)C(C)C)cs1 [ritonavir], the “Fold Change vs. reference” value ([1]; patient sample 360, prior PRI IDV, PR I13V, K20M, M36V, N37A, M46I, I62V, L63P, I93L) was 1.49 fold, the “Fold Change vs. reference” value ([1]; patient sample 627, prior PRI IDV, PR I13I/V, E35D, M46L, L63P, I64V, I73V) was 1.50 fold and the “Fold Change vs. reference” value ([1]; patient sample 0732, prior PRI NFV, PR K14R, I15V, K20T, E35D, M36I, R41K, I62V, L63Q) was 1.72 fold. The “Fold Change vs. reference” value ([1]; patient sample 0910, prior PRI NFV, PR M46I, L63P, V77I, I93I/L) was 1.85 fold, the “Fold Change vs. reference” value ([1]; patient sample 1208, prior PRI NFV, PR I62V, L63P, V77I) was 1.22 fold and the “Fold Change vs. reference” value ([1]; patient sample 3542, prior PRI IDV, PR I13V, K14R, N37D, M46I, L63P, I93L) was 3.36 fold. For the same compound, the “Fold Change vs. reference” value ([1]; patient sample 3654, PR I13V, R41K, M46I, L63P, V77I, I93L) was 1.95 fold, the “change in susceptibility” value ([1]; patient sample RTV-3542) was “decrease” and the “Percent of viruses with indicated primary mutation(s) with reduced susceptibility (fold change in IC50 > 2.5)” value ([3]; L90M) was 93.4%. The “Percent of viruses with indicated primary mutation(s) with reduced susceptibility (fold change in IC50 > 10)” value ([3]; L90M) was 66.1%, the reduction in sensitivity ([4]; I84V substitution) was 10 fold and the level of resistance ([4]; I84V with addition of V82F) was “up to 20 fold”. The “change in drug susceptibility” value ([4]; M46I, L63P, A71V introduced into wild-type NL4-3) was “did not result in significant changes in drug susceptibility”, the “change … to wild type control RTV” value ([5]; N88S-RTV) was “more susceptible” and the “Fold Change vs. reference” value ([5]; site-directed mutation N88S) was 0.36 fold. The “Fold Change vs. reference” value ([5]; site-directed mutations L63P) was 1.27 fold, the “Fold Change vs. reference” value ([5]; site-directed mutations L63P, N88S) was 0.77 fold and the “Fold Change vs. reference” value ([5]; site-directed mutations L63P, V77I) was 1.73 fold. The “Fold Change vs. reference” value ([5]; site-directed mutations L63P, V77I, N88S) was 1.39 fold, the “Fold Change vs. reference” value ([5]; site-directed mutations M46L, L63P, N88S) was 0.85 fold and the “Fold Change vs. reference” value ([5]; site-directed mutations M46L, L63P, V77I, N88S) was 1.33 fold.
